Measured values as given in the supplement of paper PMC10307832.

Legend:
Test in all cases: relative viability (nuclei count vs DMSO), 5 days (fraction); higher = more cells survive
IDH-C35 + Linsitinib = compound: Cc1ccccc1C(C(=O)NC1CCCCC1)N(C(=O)Cn1ccnc1C)c1cccc(F)c1 [IDH-C35] + C[C@]1(O)C[C@@H](c2nc(-c3ccc4ccc(-c5ccccc5)nc4c3)c3c(N)nccn32)C1 [Linsitinib] (partner 1 µM)
Summary of the method: (§1)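 Lung cancer cell lines were pin-tool dosed in 1536-well plates on the day after seeding, with either a lone drug or a fixed anchor-drug dose plus five library-drug doses (not always all listed) in √10 steps. Nuclei were counted on 4× images after 5 days. Relative viability is the ratio of treated-well to vehicle-well nuclei counts, with each value a median of duplicate plates.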

[1] = compound: CC1=C(C(=NN1)C)CC2=C(C3=C(S2)N(C(=O)N(C3=O)C)CC(C)C)C(=O)N4C[C@@H](CO4)O + CCNC(=O)c1noc(-c2cc(C(C)C)c(O)cc2O)c1-c1ccc(CN2CCOCC2)cc1 [Luminespib] (partner 0.01 µM)
Summary of the method: as §1

IDH-C35 + Trametinib = compound: Cc1ccccc1C(C(=O)NC1CCCCC1)N(C(=O)Cn1ccnc1C)c1cccc(F)c1 [IDH-C35] + CC(=O)Nc1cccc(-n2c(=O)n(C3CC3)c(=O)c3c(Nc4ccc(I)cc4F)n(C)c(=O)c(C)c32)c1 [Trametinib] (partner 0.02 µM)
Summary of the method: as §1

IDH-C35 + Decitabine = compound: Cc1ccccc1C(C(=O)NC1CCCCC1)N(C(=O)Cn1ccnc1C)c1cccc(F)c1 [IDH-C35] + Nc1ncn([C@H]2C[C@H](O)[C@@H](CO)O2)c(=O)n1 [Decitabine] (partner 2 µM)
Summary of the method: as §1

Cell Line	relative viability (IDH-C35 + Linsitinib; first compound 0.08 µM)	relative viability (IDH-C35 + Linsitinib; first compound 0.253 µM)	relative viability (IDH-C35 + Linsitinib; first compound 0.8 µM)	relative viability (IDH-C35 + Linsitinib; first compound 2.53 µM)	relative viability (IDH-C35 + Linsitinib; first compound 8 µM)	relative viability ([1]; first compound 0.0025 µM)	relative viability ([1]; first compound 0.07906 µM)	relative viability ([1]; first compound 0.25 µM)	relative viability (IDH-C35 + Trametinib; first compound 0.08 µM)	relative viability (IDH-C35 + Trametinib; first compound 0.253 µM)	relative viability (IDH-C35 + Trametinib; first compound 0.8 µM)	relative viability (IDH-C35 + Trametinib; first compound 2.53 µM)	relative viability (IDH-C35 + Trametinib; first compound 8 µM)	relative viability (IDH-C35 + Decitabine; first compound 0.08 µM)	relative viability (IDH-C35 + Decitabine; first compound 0.253 µM)	relative viability (IDH-C35 + Decitabine; first compound 0.8 µM)	relative viability (IDH-C35 + Decitabine; first compound 2.53 µM)	relative viability (IDH-C35 + Decitabine; first compound 8 µM)	relative viability ([1]; first compound 0.007906 µM)	relative viability ([1]; first compound 0.025 µM)
NCI-H23	0.514	0.541	0.541	0.523	0.505	0.242	0.23	0.219	0.347	0.456	0.282	0.392	0.325	0.332	0.35	0.336	0.332	0.312	–	–
NCI-H322M	0.965	0.878	0.81	0.95	0.794	0.927	0.887	0.861	0.451	0.485	0.55	0.488	0.507	0.686	0.701	0.695	0.718	0.78	0.714	0.86
NCI-H358	0.746	0.719	0.786	0.713	0.649	0.342	0.447	0.308	0.132	0.152	0.128	0.159	0.144	0.216	0.192	0.234	0.211	0.213	0.471	0.401
NCI-H441	0.589	0.518	0.404	0.651	0.633	0.413	0.365	0.269	0.435	0.415	0.5	0.542	0.484	0.279	0.23	0.272	0.244	0.228	0.405	0.326
NCI-H460	0.909	0.872	0.843	0.749	0.663	0.0312	0.0359	0.028	0.165	0.133	0.176	0.165	0.0866	0.541	0.46	0.482	0.467	0.466	0.0506	0.037
NCI-H520	0.915	0.969	1	0.888	0.907	0.211	0.199	0.185	0.645	0.669	0.818	0.665	0.721	0.407	0.462	0.538	0.508	0.486	0.24	0.217
NCI-H596	1.14	1.14	0.986	1.14	1.13	0.991	1.03	1.24	0.892	0.722	0.808	0.746	0.737	1.06	1.04	0.933	0.853	1.02	1.12	0.992
NCI-H647	1.03	1.29	1.18	1.1	1.1	0.135	0.325	0.163	0.488	0.378	0.444	0.473	0.47	0.45	0.344	0.401	0.42	0.366	0.138	0.171
NCI-H650	1.09	1.05	0.799	–	0.771	0.84	0.829	0.951	1.03	0.935	0.861	–	0.914	0.304	0.339	0.371	–	0.313	0.798	0.72
NCI-H661	0.625	0.54	0.51	0.54	0.644	0.877	0.913	0.885	0.592	0.575	0.548	0.557	0.561	0.566	0.541	0.546	0.535	0.602	0.938	0.824
NCI-H727	0.202	0.248	0.328	0.249	0.254	0.309	0.369	0.387	0.376	0.357	0.34	0.393	0.372	0.797	0.979	0.708	0.845	0.939	0.378	0.387
NCI-H838	1.08	0.959	0.949	1.04	0.943	0.295	0.273	0.239	0.579	0.505	0.508	0.507	0.503	0.446	0.414	0.468	0.464	0.486	0.265	0.312
NCI-H1355	0.896	0.859	0.848	0.773	0.892	0.836	0.778	0.724	0.453	0.424	0.398	0.392	0.423	0.347	0.379	0.353	0.419	0.344	0.617	0.684
NCI-H1395	1.2	1.04	1.1	1.09	0.956	0.768	0.461	0.631	1.12	1.05	1.05	0.903	0.919	0.695	0.649	0.676	0.754	0.653	0.785	0.607
NCI-H1437	0.998	1.14	0.989	1.14	1.03	1.13	1.19	1.16	0.514	0.522	0.534	0.51	0.489	0.56	0.56	0.576	0.572	0.525	1.14	1.04
NCI-H1651	0.918	0.925	0.966	1.02	0.903	0.843	0.855	1.09	0.856	0.899	0.838	0.858	0.832	0.528	0.629	0.593	0.615	0.555	0.762	0.969
